Consider one compound from publication PMC7862302, “Self-assembling thermostable chimeras as new platform for arsenic biosensing” (Scientific Reports, 2021).

The target in one experiment is T1, Vmh2-ArsC.
T1 construct: single-chain fusion: Vmh2 of Pleurotus ostreatus (N-terminal), 15-residue flexible linker, TtArsC, thrombin site LVPRGS, C-terminal His-tag; with Hydrophobin Vmh2 (Pleurotus ostreatus)
Type of experiment: binding, Thermus thermophilus. Particulars: chimera immobilised on gold; 50 mM Tris-HCl pH 7.5, 60 °C, 1 h incubation; detection in 1 M HCl; read-out: KAsIII (converted).

The target in the next experiment is T2, ArsC-Vmh2.
T2 construct: single-chain fusion: TtArsC (N-terminal), 15-residue flexible linker, Vmh2 of Pleurotus ostreatus, thrombin site LVPRGS, C-terminal His-tag; with Hydrophobin Vmh2 (Pleurotus ostreatus)
Type of experiment: binding, Thermus thermophilus. Conditions: chimera immobilised on gold; 50 mM Tris-HCl pH 7.5, 60 °C, 1 h incubation; detection in 1 M HCl; read-out: KAsIII (converted).

As for `O=[As]O` [As(III)], the Kd is 0.833 mM on Vmh2-ArsC and 1.54 mM on ArsC-Vmh2.
